Assay results published in patent US8901111B2, “Aryl-substituted heterocyclic urea modulators of fatty acid amide hydrolase” (Janssen Pharmaceutica NV, priority 2009, dated 2014).
Structures can show the parent of a compound that is named as a salt.

Key:
FAAH = biological target: T1, FAAH (Homo sapiens, UniProt O00519); experiment: Assay Method 1: FAAH assay, 3H-anandamide hydrolysis in homogenate of cells transfected with human FAAH; type: biochemical; design: expressed in transfected cells; crude homogenate (T84 cell pellets named as alternative); conditions: cell homogenate, 3H-AEA 80 nM, 1 h at rt, average of results
T1 sequence (O00519 1-579): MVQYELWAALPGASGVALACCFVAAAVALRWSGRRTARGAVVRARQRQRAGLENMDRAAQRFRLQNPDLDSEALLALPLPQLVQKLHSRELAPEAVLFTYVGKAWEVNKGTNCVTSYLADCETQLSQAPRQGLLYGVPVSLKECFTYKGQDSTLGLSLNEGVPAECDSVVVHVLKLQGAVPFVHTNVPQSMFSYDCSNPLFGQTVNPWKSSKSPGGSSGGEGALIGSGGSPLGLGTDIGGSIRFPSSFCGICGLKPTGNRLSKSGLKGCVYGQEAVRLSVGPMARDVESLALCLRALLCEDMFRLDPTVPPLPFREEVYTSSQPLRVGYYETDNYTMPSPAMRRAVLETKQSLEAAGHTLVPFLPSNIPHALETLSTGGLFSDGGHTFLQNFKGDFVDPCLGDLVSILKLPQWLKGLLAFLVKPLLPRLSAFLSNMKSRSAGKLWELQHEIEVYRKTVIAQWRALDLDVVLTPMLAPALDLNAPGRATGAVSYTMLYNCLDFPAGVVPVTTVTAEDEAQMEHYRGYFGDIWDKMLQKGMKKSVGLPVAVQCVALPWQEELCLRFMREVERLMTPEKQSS
Procedure: A. Transfection of Cells with Human FAAH
(§1) A 10-cm tissue culture dish with a confluent monolayer of SK-N-MC cells was split 2 days (d) prior to transfection. Using sterile technique, the media was removed and the cells were detached from the dish by the addition of trypsin. One fifth of the cells were then placed onto a new 10-cm dish. Cells were grown in a 37° C. incubator with 5% CO2 in Minimal Essential Media Eagle with 10% Fetal Bovine Serum. After 2 d, cells were approximately 80% confluent. These cells were removed from the dish with trypsin and pelleted in a clinical centrifuge. The pellet was re-suspended in 400 μL complete media and transferred to an electroporation cuvette with a 0.4 cm gap between the electrodes. Supercoiled human FAAH cDNA (1 μg) was added to the cells and mixed. The voltage for the electroporation was set at 0.25 kV, and the capacitance was set at 960 After electroporation, the cells were diluted into complete media (10 mL) and plated onto four 10-cm dishes. Because of the variability in the efficiency of electroporation, four different concentrations of cells were plated. The ratios used were 1:20, 1:10, and 1:5, with the remainder of the cells being added to the fourth dish. The cells were allowed to recover for 24 h before adding the selection media (complete media with 600 μg/mL G418). After 10 d, dishes were analyzed for surviving colonies of cells. Dishes with well-isolated colonies were used. Cells from individual colonies were isolated and tested.
(§2) T84 frozen cell pellets or transfected SK-N-MC cells (contents of 1×15 cm culture dishes) were homogenized in 50 mL of FAAH assay buffer (125 mM Tris, 1 mM EDTA, 0.2% Glycerol, 0.02% Triton X-100, 0.4 mM Hepes, pH 9). The assay mixture consisted of 50 μL of the cell homogenate, 10 μL of the test compound, and 40 μL of anandamide [1-^3H-ethanolamine] (^3H-AEA, Perkin-Elmer, 10.3 Ci/mmol), which was added last, for a final tracer concentration of 80 nM. The reaction mixture was incubated at rt for 1 h. During the incubation, 96-well Multiscreen filter plates (catalog number MAFCNOB50; Millipore, Bedford, Mass., USA) were loaded with 25 μL of activated charcoal (Multiscreen column loader, catalog number MACL09625, Millipore) and washed once with 100 μL of MeOH. Also during the incubation, 96-well DYNEX MicroLite plates (catalog number NL510410) were loaded with 100 μL of MicroScint40 (catalog number 6013641, Packard Bioscience, Meriden, Conn., USA). After the 1 h incubation, 60 μL of the reaction mixture were transferred to the charcoal plates, which were then assembled on top of the DYNEX plates using Centrifuge Alignment Frames (catalog number MACF09604, Millipore). The unbound labeled ethanolamine was centrifuged through to the bottom plate (5 min at 2000 rpm), which was preloaded with the scintillant, as described above. The plates were sealed and left at rt for 1 h before counting on a Hewlett Packard TopCount.
(§3) Results for compounds tested in these assays are summarized in Table 1, as an average of results obtained. Compounds were tested in the free base or trifluoroacetic acid salt form. Compounds tested in the trifluoroacetic acid salt form are indicated as such by a “*” designation after the example number. Where activity is shown as greater than (>) a particular value, the value is the solubility limit of the compound in the assay medium or the highest concentration tested in the assay.

rat FAAH = biological target: T2, rat FAAH (Rattus norvegicus, UniProt P97612); experiment: Assay Method 2: FAAH assay, 3H-anandamide hydrolysis in homogenate of cells transfected with rat FAAH; type: biochemical; conditions: cell homogenate, 3H-AEA 80 nM, 1 h at rt, average of results
T2 construct: expressed in transfected cells; crude homogenate
T2 sequence (P97612 1-579): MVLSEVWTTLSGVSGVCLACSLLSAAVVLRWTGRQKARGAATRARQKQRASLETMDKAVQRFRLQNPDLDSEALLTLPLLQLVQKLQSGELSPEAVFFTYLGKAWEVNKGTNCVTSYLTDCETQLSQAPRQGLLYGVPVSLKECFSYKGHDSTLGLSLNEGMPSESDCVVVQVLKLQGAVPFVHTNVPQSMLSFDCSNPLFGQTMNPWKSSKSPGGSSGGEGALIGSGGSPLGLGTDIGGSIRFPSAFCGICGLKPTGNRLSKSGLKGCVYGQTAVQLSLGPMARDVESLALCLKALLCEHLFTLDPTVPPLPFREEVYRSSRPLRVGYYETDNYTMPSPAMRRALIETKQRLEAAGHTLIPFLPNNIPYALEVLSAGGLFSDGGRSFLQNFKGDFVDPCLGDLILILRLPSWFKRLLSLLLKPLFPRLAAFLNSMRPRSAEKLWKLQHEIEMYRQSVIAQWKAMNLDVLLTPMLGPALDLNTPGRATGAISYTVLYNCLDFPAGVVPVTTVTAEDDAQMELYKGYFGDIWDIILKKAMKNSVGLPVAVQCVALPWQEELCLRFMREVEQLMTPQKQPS
Procedure: A. Transfection of Cells with Rat FAAH
as §1, with “rat” for “human”, “960 μF.” for “960”
as §2, §3

| Compound | IC50 (FAAH) | IC50 (rat FAAH) |
| --- | --- | --- |
| O=C(Nc1cccnc1)N1CC(CCOc2cc(Cl)cc(Cl)c2)C1 [Example 47, 3-[2-(3,5-Dichloro-phenoxy)-ethyl]-azetidine-1-carboxylic acid pyridin-3-ylamide] | 1000 nM | 250 nM |
| O=C(Nc1cnccc1Cl)N1CCC(CCOc2cccc(Oc3ccc(Cl)cc3)c2)C1 (stereo not drawn) [Example 64, 3-{2-[3-(4-Chloro-phenoxy)-phenoxy]-ethyl}-pyrrolidine-1-carboxylic acid (4-chloro-pyridin-3-yl)-amide] | 63 nM | 73 nM |
| O=C(Nc1cccnc1)N1CC(CCOc2cccc(C(F)(F)F)c2)C1 [Example 46, 3-[2-(3-Trifluoromethyl-phenoxy)-ethyl]-azetidine-1-carboxylic acid pyridin-3-ylamide] | 1600 nM | 615 nM |
| O=C(Nc1cccnc1)N1CC(COc2ccc(Cl)c(Cl)c2)C1 [Example 21, 3-(3,4-Dichloro-phenoxymethyl)-azetidine-1-carboxylic acid pyridin-3-ylamide] | 1000 nM | 530 nM |
| O=C(Nc1cccnc1)N1CC(CCOc2cccc(OC(F)(F)F)c2)C1 [Example 31, 3-[2-(3-Trifluoromethoxy-phenoxy)-ethyl]-azetidine-1-carboxylic acid pyridin-3-ylamide] | 3000 nM | 900 nM |
| O=C(Nc1cccnc1)N1CCC(CCOc2ccccc2)C1 (stereo not drawn) [Example 54, 3-(2-Phenoxy-ethyl)-pyrrolidine-1-carboxylic acid pyridin-3-ylamide] | > 10000 nM | > 10000 nM |
| O=C(Nc1cccnc1)N1CCC(Cc2ccc3c(c2)OC(F)(F)O3)C1 (stereo not drawn) [Example 71, 3-(2,2-Difluoro-benzo[1,3]dioxol-5-ylmethyl)-pyrrolidine-1-carboxylic acid pyridin-3-ylamide] | > 10000 nM | > 10000 nM |
| O=C(Nc1cccnc1)N1CC(CCOc2ccc3ccccc3c2)C1 [Example 35, 3-[2-(Naphthalen-2-yloxy)-ethyl]-azetidine-1-carboxylic acid pyridin-3-ylamide, trifluoroacetate salt] | 160 nM | 350 nM |
| O=C(Nc1cccnc1)N1CCC(CCc2cccc(Oc3ccc(F)cc3)c2)C1 (stereo not drawn) [Example 79, 3-{2-[3-(4-Fluoro-phenoxy)-phenyl]-ethyl}-pyrrolidine-1-carboxylic acid pyridin-3-ylamide] | 58 nM | 48 nM |
| O=C(Nc1cnccc1Cl)N1CCC(CCc2ccc3c(c2)OC(F)(F)O3)C1 (stereo not drawn) [Example 78, 3-[2-(2,2-Difluoro-benzo[1,3]dioxol-5-yl)-ethyl]-pyrrolidine-1-carboxylic acid (4-chloro-pyridin-3-yl)-amide] | 230 nM | 320 nM |
| O=C(Nc1cccc2nccn12)N1CCC(Cc2cccc(Oc3ccc(F)cc3)c2)C1 (stereo not drawn) [Example 76, 3-[3-(4-Fluoro-phenoxy)-benzyl]-pyrrolidine-1-carboxylic acid imidazo[1,2-a]pyridin-5-ylamide] | 400 nM | 70 nM |

These reach a lower IC50 (FAAH). Values come first.

| IC50 (FAAH) | IC50 (rat FAAH) | Compound |
| --- | --- | --- |
| 16 nM | 6 nM | O=C(Nc1cnccc1Cl)N1CC[C@H](COc2cccc(Oc3ccc(Cl)cc3)c2)C1 [Example 55, (3S)-3-[3-(4-Chloro-phenoxy)-phenoxymethyl]-pyrrolidine-1-carboxylic acid (4-chloro-pyridin-3-yl)-amide] |
| 13 nM | 27 nM | O=C(Nc1cccnc1)N1CC(CCOc2cccc(Oc3ccc(Cl)cc3)c2)C1 [Example 44, 3-{2-[3-(4-Chloro-phenoxy)-phenoxy]-ethyl}-azetidine-1-carboxylic acid pyridin-3-ylamide] |
| 13 nM | 10 nM | O=C(Nc1ccc(-n2nccn2)nc1)N1CC(CCOc2cccc(Oc3ccc(Cl)cc3)c2)C1 [Example 39, 3-{2-[3-(4-Chloro-phenoxy)-phenoxy]-ethyl}-azetidine-1-carboxylic acid (6-[1,2,3]triazol-2-yl-pyridin-3-yl)-amide] |
| 9 nM | 97 nM | CS(=O)(=O)c1ccc(Oc2cccc(OCC3CCN(C(=O)Nc4cnccc4Cl)C3)c2)cc1 (stereo not drawn) [Example 50, N-(4-Chloropyridin-3-yl)-3-({3-[4-(methylsulfonyl)phenoxy]phenoxy}methyl)pyrrolidine-1-carboxamide] |
| 9 nM | 33 nM | O=C(Nc1cnccc1Cl)N1CCC(COc2ccc(Cl)c(Cl)c2)C1 (stereo not drawn) [Example 49, N-(4-Chloropyridin-3-yl)-3-[(3,4-dichlorophenoxy)methyl]pyrrolidine-1-carboxamide] |
| 4 nM | 2 nM | O=C(Nc1cnccc1Cl)N1CC[C@@H](COc2cccc(Oc3ccc(Cl)cc3)c2)C1 [Example 56, (3R)-3-[3-(4-Chloro-phenoxy)-phenoxymethyl]-pyrrolidine-1-carboxylic acid (4-chloro-pyridin-3-yl)-amide] |
| 1 nM | 5 nM | O=C(Nc1cnccc1Cl)N1CC(CCOc2cccc(Oc3ccc(Cl)cn3)c2)C1 [Example 48, 3-{2-[3-(5-Chloro-pyridin-2-yloxy)-phenoxy]-ethyl}-azetidine-1-carboxylic acid (4-chloro-pyridin-3-yl)-amide] |
